Assay results: paper PMC11876692, “Synthesis, physicochemical characterization and biological activity of novel pyrrole flavones” (Scientific Reports, 2025)

Columns and labels:
Aliivibrio fischeri = settings: 10 µM
Description: All the synthesized derivatives were subjected to the Microtox test. […] The acute toxicity of the tested compounds was measured using the Microtox test. For the measurements, the 81.9% screening test procedure was applied using the Microtox [MUT] apparatus along with the Microtox Omni 4.2 software supplied by the manufacturer (Modern Water plc). Briefly, the bioluminescence of bacterial suspension was measured before the addition of the solution of the tested compound and after 5 and 15 min upon exposure. […] As the control, 2% sodium chloride solution was used (Modern Water Microtox Diluent).

5637 cells = test: MTT assay, cytotoxicity towards 5637 bladder cancer cells; type: cell-based, human; settings: for IC50: Homo sapiens, MTT; for cell viability: preliminary experiment (10 µM implied)
Description: (§1) Human urinary bladder grade II carcinoma cell line (5637), human urinary bladder carcinoma (HT-1376), and human lung fibroblasts (MRC-5) were purchased from ATCC (Manassas, VA, USA). The 5637 cells were grown in RPMI, HT-1376 cells were cultured in EMEM, and MRC-5 in DMEM. All media were supplemented with 10% (v/v) FBS, 2 mM L-glutamine, 100 U/mL penicillin, and […] streptomycin (1% v/v). The cells were cultured at 37 °C in a humidified atmosphere with 5% CO2.
(§2) Tested compounds were dissolved in DMSO at a concentration of 10 mM for preliminary study. […] Stock solutions were stored in the dark at -20 °C.
(§3) For the preliminary experiments, the 5637 cells were used. The compounds were prepared in the cell culture medium at a concentration of 0.1 µM, 1 µM, and 10 µM. DMSO was used as a control. […] Cells were treated with compounds for 24, 48, and 72 h. Cells were washed twice with DPBS, and 170 µL of MTT solution at a final concentration of 0.59 mg/mL in culture medium was added. Cells were incubated with MTT solution for 1.5 h at standard cell culture conditions. After incubation, MTT was removed, and formazan crystals were dissolved with 200 µL DMSO. The absorbance was measured at a wavelength of 570 nm using a plate reader (Biotek Instruments, Elx-800, Winooski, VT, USA).
(§4) Subsequently, cells were treated with compound 4a at a concentration of 0.5 µM, 1 µM, 2 µM, 4 µM, 6 µM, and 8 µM and compound 5b at a concentration range of 2 µM, 4 µM, 6 µM, 8 µM,10 µM, and 15 µM for 24 h and 48 h. […] The MTT assay was performed as described above.
(§5) The IC50 values were calculated using the GraphPad Prism 8 software (GraphPad Software, Inc., La Jolla, CA, USA), and cell viability was expressed as a percentage of the control. At least three biological replicates were performed for each compound.

[1] = MTT assay, cytotoxicity towards non-cancerous MRC-5 fibroblasts; type: cell-based, human; settings: human, MRC-5 lung fibroblasts, MRC-5 cells, 24 h, read-out: cell viability
Description: as §1, §2, §3, §4, §5

MRC-5 cells = test: as above; type: cell-based, human; settings: for IC50: Homo sapiens, MTT; for effect on viability of MRC-5 cells: all tested concentrations (2-15 µM), 24 and 48 h
Description: as §1, §2, §3, §4, §5

HT-1376 cells = test: MTT assay, cytotoxicity towards HT-1376 bladder cancer cells; type: cell-based, human
Description: as §1, §2, §3, §4, §5

[2] = Homo sapiens, HT-1376, 24 h, 24 h
[3] = Homo sapiens, HT-1376, 48 h, 48 h

decrease in bioluminescence (Aliivibrio fischeri) [%]	Compound	effect on viability of cancer cells (5637 cells; 10 µM)	viability at 24 h, 6 µM ([1]; 6 µM) [%]	viability at 24 h, 8 µM ([1]; 8 µM) [%]	IC50 (MRC-5 cells; MRC5, 24 h) [µM]	IC50 (MRC-5 cells; MRC5, 48 h) [µM]	IC50 (HT-1376 cells; 24 h) [µM]	IC50 (HT-1376 cells; [2]) [µM]	IC50 (HT-1376 cells; [3]) [µM]	IC50 (5637 cells; 24 h) [µM]	IC50 (5637 cells; 48 h) [µM]	cell viability (5637 cells; 48 h of incubation) [%]	cell viability (5637 cells; 72 h of incubation) [%]	effect on viability of MRC-5 cells (MRC-5 cells)	effect on viability of MRC-5 cells (MRC-5 cells; listed as flavone derivative with 7-(2-methyl-5-phenylpyrrol-1-yl))
80	Cc1ccc(C)n1-c1ccc2oc(-c3ccccc3)cc(=O)c2c1 [4a, 6-(2,5-Dimethylpyrrol-1-yl)-2-phenylchromen-4-one]	did not affect the viability	–	–	–	–	–	–	–	–	–	–	–	–	–
–	Cc1ccc(-c2ccccc2)n1-c1ccc2oc(-c3ccccc3)cc(=O)c2c1 [4b, 6-(2-Methyl-5-phenylpyrrol-1-yl)-2-phenylchromen-4-one]	–	57	52	> 8	5.21 ± 0.1	5.89 ± 1.1	~5	5.37 ± 1.44	2.97 ± 0.17	2.12 ± 0.19	–	–	–	–
–	Cc1ccc(C)n1-c1ccc2c(=O)cc(-c3ccccc3)oc2c1 [5a, 7-(2,5-Dimethylpyrrol-1-yl)-2-phenylchromen-4-one]	–	–	–	–	–	–	–	–	–	–	75.8	48	–	–
–	Cc1ccc(-c2ccccc2)n1-c1ccc2c(=O)cc(-c3ccccc3)oc2c1 [5b, 7-(2-Methyl-5-phenylpyrrol-1-yl)-2-phenylchromen-4-one]	–	–	–	> 15	> 15	13.5 ± 1.41	~13	11.7 ± 1.74	7.39 ± 2.02	4.61 ± 0.1	–	–	did not decrease cell viability	without any effect
